Experimental data as given in PMC4979471 (Cell Death Discovery, 2015).
Like-named read-outs stand apart in the source and are kept apart here.

Legend:
Assay in all cases: Kinase selectivity, P33-radiolabeled assay
Assay type in all cases: biochemical
Details in all cases: 10 μM ATP
CDK1/cyclin B = biological target: T1, CDK1/cyclin B (Homo sapiens, UniProt P06493)
T1 construct: purchased Reaction Biology Corp
Summary of the method: (§1)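 ATP at 10 μM; test article at 10 μM, single point, two replicates. Output is activity as % of DMSO.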

c-Src = biological target: T2, c-Src (Homo sapiens, UniProt P12931)
T2 construct: purchased Reaction Biology Corp
Summary of the method: as §1

NEK9 = biological target: T3, NEK9 (Homo sapiens, UniProt Q8TD19)
T3 construct: purchased Reaction Biology Corp
T3 sequence (Q8TD19 1-979): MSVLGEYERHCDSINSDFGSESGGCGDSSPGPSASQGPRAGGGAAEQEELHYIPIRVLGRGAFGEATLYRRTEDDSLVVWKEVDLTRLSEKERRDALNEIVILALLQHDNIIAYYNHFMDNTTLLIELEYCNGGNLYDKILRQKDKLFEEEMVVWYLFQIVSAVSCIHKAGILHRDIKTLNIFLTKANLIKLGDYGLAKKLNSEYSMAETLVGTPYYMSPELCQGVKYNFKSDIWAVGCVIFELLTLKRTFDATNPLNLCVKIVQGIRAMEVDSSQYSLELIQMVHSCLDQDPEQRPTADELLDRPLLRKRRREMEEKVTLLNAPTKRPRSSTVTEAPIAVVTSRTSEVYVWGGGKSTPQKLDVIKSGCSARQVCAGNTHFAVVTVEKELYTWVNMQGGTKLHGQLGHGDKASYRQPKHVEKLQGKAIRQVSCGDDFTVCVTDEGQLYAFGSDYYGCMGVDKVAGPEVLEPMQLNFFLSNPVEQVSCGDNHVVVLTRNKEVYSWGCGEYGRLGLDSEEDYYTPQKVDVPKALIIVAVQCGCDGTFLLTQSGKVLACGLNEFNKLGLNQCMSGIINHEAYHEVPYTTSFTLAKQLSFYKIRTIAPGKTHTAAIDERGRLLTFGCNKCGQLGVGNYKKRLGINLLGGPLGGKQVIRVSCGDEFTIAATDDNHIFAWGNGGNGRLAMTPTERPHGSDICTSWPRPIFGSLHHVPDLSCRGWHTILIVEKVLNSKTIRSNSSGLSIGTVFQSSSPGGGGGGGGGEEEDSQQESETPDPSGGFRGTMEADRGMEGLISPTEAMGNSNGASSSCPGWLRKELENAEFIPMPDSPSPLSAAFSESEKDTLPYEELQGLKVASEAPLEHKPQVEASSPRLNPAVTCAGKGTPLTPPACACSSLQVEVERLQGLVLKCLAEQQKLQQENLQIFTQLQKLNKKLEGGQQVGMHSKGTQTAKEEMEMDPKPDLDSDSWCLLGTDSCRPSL
Summary of the method: as §1

VRK2 = biological target: T4, VRK2 (Homo sapiens, UniProt Q86Y07)
T4 construct: purchased Reaction Biology Corp
Summary of the method: as §1

p70S6Kb/RPS6KB2 = biological target: T5, p70S6Kb/RPS6KB2 (Homo sapiens, UniProt Q9UBS0)
T5 construct: purchased Reaction Biology Corp
Summary of the method: as §1

LCK = biological target: T6, LCK (Homo sapiens, UniProt P06239)
T6 construct: purchased Reaction Biology Corp
Summary of the method: as §1

MSK1/RPS6KA5 = biological target: T7, MSK1/RPS6KA5 (Homo sapiens, UniProt O75582)
T7 construct: purchased Reaction Biology Corp
Summary of the method: as §1

BRSK1 = biological target: T8, BRSK1 (Homo sapiens, UniProt Q8TDC3)
T8 construct: purchased Reaction Biology Corp
T8 sequence (Q8TDC3 1-778): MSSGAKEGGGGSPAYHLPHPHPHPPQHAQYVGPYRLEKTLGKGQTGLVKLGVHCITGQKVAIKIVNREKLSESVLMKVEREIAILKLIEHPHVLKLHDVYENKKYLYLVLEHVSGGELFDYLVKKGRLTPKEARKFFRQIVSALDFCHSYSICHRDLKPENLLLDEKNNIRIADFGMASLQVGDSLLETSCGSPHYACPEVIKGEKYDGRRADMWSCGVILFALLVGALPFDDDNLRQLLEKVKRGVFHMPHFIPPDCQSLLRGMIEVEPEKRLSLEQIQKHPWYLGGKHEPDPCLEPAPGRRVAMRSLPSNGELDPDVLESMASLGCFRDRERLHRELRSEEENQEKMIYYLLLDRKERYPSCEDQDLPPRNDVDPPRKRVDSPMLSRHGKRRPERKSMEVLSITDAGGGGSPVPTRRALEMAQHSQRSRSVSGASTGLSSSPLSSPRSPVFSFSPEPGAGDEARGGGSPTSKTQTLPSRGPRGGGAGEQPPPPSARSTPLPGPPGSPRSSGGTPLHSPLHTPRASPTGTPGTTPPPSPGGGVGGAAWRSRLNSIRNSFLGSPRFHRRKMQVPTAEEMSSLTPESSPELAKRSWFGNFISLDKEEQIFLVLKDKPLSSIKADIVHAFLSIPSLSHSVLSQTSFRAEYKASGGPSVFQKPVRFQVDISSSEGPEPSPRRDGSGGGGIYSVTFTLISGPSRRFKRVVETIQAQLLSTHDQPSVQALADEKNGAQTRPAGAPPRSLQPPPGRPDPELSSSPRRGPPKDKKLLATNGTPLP
Summary of the method: as §1

NEK6 = biological target: T9, NEK6 (Homo sapiens, UniProt Q9HC98)
T9 construct: purchased Reaction Biology Corp
Summary of the method: as §1

RIPK2 = biological target: T10, RIPK2 (Homo sapiens, UniProt O43353)
T10 construct: purchased Reaction Biology Corp
Summary of the method: as §1

JNK1 = biological target: T11, JNK1 (Homo sapiens, UniProt P45983)
T11 construct: purchased Reaction Biology Corp
Summary of the method: as §1

CK1d = biological target: T12, CK1d (Homo sapiens, UniProt P48730)
T12 construct: purchased Reaction Biology Corp
Summary of the method: as §1

[1] = read-out: % Enzyme Activity (relative to DMSO controls) AVG
[2] = read-out: % Enzyme Activity (relative to DMSO controls) Data 1
[3] = read-out: % Enzyme Activity (relative to DMSO controls) Data 2

T11 sequence (P45983 whole entry): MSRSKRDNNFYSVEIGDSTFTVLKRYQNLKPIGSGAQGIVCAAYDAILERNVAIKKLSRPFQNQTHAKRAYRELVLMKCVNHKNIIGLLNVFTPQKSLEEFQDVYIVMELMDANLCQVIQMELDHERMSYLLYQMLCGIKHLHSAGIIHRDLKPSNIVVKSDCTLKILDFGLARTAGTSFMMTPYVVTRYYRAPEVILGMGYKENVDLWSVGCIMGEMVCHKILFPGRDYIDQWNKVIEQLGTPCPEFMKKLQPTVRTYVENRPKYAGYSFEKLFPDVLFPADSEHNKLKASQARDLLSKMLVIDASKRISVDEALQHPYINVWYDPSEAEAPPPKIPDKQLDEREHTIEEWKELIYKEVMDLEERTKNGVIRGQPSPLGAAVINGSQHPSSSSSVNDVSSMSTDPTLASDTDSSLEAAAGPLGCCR
T7 sequence (O75582 whole entry): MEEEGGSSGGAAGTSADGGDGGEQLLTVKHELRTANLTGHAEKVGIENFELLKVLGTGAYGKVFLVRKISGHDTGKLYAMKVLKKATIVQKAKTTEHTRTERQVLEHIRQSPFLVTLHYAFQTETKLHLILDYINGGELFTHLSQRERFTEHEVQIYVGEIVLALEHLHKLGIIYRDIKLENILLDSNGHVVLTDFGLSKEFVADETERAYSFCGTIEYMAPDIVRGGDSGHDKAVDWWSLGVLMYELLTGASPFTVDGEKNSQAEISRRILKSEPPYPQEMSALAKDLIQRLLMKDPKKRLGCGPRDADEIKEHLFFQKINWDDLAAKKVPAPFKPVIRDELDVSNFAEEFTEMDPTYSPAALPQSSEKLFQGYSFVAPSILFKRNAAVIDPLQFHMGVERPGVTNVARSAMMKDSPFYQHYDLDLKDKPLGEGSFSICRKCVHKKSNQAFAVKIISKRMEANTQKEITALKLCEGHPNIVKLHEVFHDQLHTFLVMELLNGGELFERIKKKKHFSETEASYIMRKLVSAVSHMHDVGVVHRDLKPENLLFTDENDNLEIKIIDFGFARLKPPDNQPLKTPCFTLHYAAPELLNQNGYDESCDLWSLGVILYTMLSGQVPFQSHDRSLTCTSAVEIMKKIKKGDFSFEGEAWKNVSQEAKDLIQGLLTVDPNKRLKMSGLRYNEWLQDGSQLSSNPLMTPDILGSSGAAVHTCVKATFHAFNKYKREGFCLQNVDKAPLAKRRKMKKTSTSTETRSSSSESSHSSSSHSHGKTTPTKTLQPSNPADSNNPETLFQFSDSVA
T10 sequence (O43353 whole entry): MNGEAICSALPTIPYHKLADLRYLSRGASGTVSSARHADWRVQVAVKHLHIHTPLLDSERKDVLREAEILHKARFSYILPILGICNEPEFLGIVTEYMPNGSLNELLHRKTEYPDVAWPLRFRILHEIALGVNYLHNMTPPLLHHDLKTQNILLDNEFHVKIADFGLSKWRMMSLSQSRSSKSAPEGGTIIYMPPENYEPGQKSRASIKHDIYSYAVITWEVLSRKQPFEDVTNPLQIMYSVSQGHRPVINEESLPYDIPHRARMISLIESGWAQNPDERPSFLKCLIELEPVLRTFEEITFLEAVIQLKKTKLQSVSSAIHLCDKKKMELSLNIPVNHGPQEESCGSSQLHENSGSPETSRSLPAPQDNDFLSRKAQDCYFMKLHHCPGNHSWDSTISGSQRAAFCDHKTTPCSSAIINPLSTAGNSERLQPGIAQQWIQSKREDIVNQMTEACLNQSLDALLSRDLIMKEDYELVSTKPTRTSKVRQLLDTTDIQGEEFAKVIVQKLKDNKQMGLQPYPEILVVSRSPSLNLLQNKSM
T4 sequence (Q86Y07 whole entry): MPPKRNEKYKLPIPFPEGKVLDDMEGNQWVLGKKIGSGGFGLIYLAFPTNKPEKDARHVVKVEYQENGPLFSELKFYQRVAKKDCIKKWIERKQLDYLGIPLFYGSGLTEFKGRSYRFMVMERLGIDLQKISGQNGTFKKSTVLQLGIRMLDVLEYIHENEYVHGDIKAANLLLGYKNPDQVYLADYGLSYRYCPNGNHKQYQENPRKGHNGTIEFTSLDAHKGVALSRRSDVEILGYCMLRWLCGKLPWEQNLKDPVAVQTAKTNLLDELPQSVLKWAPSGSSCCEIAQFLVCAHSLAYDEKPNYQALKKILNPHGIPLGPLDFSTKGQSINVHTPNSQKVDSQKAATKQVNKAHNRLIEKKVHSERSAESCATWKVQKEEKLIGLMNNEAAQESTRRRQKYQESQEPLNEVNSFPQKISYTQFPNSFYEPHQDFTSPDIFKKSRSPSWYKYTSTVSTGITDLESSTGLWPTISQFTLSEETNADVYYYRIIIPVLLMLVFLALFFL
T1 sequence (P06493 whole entry): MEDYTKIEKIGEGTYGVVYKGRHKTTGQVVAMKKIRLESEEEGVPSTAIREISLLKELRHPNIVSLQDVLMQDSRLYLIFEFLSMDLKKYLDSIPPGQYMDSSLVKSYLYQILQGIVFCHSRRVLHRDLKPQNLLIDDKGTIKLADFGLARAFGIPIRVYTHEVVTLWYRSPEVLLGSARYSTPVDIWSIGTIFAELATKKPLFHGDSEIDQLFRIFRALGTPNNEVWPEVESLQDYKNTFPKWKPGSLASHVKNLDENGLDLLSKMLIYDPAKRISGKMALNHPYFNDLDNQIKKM
T1 sequence (P14635 whole entry partner): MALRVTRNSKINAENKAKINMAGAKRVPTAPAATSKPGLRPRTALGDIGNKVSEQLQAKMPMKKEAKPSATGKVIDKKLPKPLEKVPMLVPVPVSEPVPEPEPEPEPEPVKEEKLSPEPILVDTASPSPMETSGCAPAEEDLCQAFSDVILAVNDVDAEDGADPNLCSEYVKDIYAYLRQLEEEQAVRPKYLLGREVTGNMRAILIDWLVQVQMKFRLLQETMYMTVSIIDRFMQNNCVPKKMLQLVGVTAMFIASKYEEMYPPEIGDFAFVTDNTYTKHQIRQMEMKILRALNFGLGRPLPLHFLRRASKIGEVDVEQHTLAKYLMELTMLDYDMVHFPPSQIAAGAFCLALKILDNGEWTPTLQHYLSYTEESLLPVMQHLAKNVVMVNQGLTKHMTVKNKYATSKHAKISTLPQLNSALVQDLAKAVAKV
T2 sequence (P12931 whole entry): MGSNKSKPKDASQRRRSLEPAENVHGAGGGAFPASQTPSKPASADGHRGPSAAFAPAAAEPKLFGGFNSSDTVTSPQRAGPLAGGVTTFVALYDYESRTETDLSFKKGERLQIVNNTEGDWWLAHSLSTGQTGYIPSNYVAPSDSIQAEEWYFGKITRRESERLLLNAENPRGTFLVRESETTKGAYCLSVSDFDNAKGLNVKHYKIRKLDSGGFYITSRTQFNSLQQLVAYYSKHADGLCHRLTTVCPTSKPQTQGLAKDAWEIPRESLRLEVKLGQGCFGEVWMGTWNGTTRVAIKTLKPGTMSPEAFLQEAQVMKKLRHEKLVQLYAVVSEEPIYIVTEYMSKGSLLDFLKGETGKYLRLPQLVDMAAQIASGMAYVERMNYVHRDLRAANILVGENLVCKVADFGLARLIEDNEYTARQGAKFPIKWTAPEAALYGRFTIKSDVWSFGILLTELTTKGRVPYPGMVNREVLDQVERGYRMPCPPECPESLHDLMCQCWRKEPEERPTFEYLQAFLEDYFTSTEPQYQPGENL
T5 sequence (Q9UBS0 whole entry): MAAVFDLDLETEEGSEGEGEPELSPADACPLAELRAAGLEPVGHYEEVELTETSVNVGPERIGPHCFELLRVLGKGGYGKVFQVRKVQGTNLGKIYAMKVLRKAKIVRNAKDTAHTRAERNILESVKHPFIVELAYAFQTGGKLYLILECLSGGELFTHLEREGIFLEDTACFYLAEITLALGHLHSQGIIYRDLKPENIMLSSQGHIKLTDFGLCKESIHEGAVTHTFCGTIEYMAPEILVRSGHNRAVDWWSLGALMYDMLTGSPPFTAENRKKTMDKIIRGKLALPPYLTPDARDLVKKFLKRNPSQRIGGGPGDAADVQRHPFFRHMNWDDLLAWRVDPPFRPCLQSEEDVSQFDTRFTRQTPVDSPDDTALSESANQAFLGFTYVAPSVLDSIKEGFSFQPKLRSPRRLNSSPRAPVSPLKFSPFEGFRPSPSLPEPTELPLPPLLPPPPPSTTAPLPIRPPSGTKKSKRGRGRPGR
T12 sequence (P48730 whole entry): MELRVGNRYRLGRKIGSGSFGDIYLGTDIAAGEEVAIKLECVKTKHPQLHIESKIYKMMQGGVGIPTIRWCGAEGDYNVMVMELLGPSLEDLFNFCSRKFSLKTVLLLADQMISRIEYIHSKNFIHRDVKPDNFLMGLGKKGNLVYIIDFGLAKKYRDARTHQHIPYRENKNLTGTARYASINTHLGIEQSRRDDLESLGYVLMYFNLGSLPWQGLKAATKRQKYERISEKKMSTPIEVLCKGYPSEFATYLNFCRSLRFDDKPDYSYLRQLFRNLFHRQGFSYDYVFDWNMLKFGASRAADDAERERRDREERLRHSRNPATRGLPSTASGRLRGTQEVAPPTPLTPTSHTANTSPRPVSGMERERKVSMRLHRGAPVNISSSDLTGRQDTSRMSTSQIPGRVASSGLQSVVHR
T6 sequence (P06239 whole entry): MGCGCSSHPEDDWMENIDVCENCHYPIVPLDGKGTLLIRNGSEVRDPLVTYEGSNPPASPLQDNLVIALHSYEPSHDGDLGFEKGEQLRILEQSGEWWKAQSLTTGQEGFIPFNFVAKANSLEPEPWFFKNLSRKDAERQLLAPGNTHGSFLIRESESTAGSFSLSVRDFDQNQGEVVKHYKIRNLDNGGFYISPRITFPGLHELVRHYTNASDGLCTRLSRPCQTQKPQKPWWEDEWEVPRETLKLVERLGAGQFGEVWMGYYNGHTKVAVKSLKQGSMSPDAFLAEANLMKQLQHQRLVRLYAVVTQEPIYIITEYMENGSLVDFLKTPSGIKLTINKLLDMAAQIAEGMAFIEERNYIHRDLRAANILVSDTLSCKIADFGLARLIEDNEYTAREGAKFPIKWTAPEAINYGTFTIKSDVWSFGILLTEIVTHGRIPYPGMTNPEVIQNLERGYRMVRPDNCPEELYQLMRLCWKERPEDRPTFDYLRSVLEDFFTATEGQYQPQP

For `CC(C)(C)C(=O)N1N=CC[C@H]1c1ccccc1` [GSK′963], the remaining activity at 10 µM (CDK1/cyclin B; [1]) was 88.6%, the remaining activity at 10 µM (CDK1/cyclin B; [2]) was 84% and the remaining activity at 10 µM (CDK1/cyclin B; [3]) was 93.2%. The remaining activity at 10 µM (c-Src; [1]) was 109%, the remaining activity at 10 µM (c-Src; [2]) was 112% and the remaining activity at 10 µM (c-Src; [3]) was 106%. The remaining activity at 10 µM (NEK9; [1]) was 92.8%, the remaining activity at 10 µM (NEK9; [2]) was 92.1% and the remaining activity at 10 µM (NEK9; [3]) was 93.5%. It also gave a remaining activity at 10 µM (VRK2; [1]) of 107%, a remaining activity at 10 µM (VRK2; [2]) of 107% and a remaining activity at 10 µM (VRK2; [3]) of 108%. It also gave a remaining activity at 10 µM (p70S6Kb/RPS6KB2; [1]) of 100%, a remaining activity at 10 µM (p70S6Kb/RPS6KB2; [2]) of 102% and a remaining activity at 10 µM (p70S6Kb/RPS6KB2; [3]) of 98%. For the same compound, the remaining activity at 10 µM (LCK; [1]) was 96.4%, the remaining activity at 10 µM (LCK; [2]) was 96.1% and the remaining activity at 10 µM (LCK; [3]) was 96.7%. It also gave a remaining activity at 10 µM (MSK1/RPS6KA5; [1]) of 108%, a remaining activity at 10 µM (MSK1/RPS6KA5; [2]) of 108% and a remaining activity at 10 µM (MSK1/RPS6KA5; [3]) of 108%. It also gave a remaining activity at 10 µM (BRSK1; [1]) of 95.2%, a remaining activity at 10 µM (BRSK1; [2]) of 96.9% and a remaining activity at 10 µM (BRSK1; [3]) of 93.5%. For the same compound, the remaining activity at 10 µM (NEK6; [1]) was 97.9%, the remaining activity at 10 µM (NEK6; [2]) was 100% and the remaining activity at 10 µM (NEK6; [3]) was 95.5%. It also gave a remaining activity at 10 µM (RIPK2; [1]) of 110%, a remaining activity at 10 µM (RIPK2; [2]) of 108% and a remaining activity at 10 µM (RIPK2; [3]) of 112%. It also gave a remaining activity at 10 µM (JNK1; [1]) of 97.1%, a remaining activity at 10 µM (JNK1; [2]) of 97.3% and a remaining activity at 10 µM (JNK1; [3]) of 97%. For the same compound, the remaining activity at 10 µM (CK1d; [1]) was 96.7%, the remaining activity at 10 µM (CK1d; [2]) was 94.1% and the remaining activity at 10 µM (CK1d; [3]) was 99.2%.
